Assay results: the NIST ThermoML archive (doi:10.1016/j.jct.2010.09.003)
± gives the expanded uncertainty stated by the source.

Legend:
[1] = Ring tensiometer
[2] = xn = mol fraction of the nth substance listed; conditions: Ring tensiometer

OCCO [1,2-ethanediol]
[1]
Conditions | surface tension liquid-gas [mN/m]
283.15 K | 49.27 ± 0.66
298.15 K | 48.22 ± 0.65
308.15 K | 47.29 ± 0.64

OCCO [1,2-ethanediol] + CC#N
[2]
Conditions | surface tension liquid-gas [mN/m]
283.15 K, x2 = 0.0102 | 47.92 ± 0.65
283.15 K, x2 = 0.0202 | 46.5 ± 0.63
283.15 K, x2 = 0.0349 | 44.85 ± 0.61
283.15 K, x2 = 0.0488 | 41.85 ± 0.57
283.15 K, x2 = 0.0611 | 41.1 ± 0.57
283.15 K, x2 = 0.0851 | 39 ± 0.54
283.15 K, x2 = 0.0936 | 38.18 ± 0.54
283.15 K, x2 = 0.102 | 36.99 ± 0.52
283.15 K, x2 = 0.1141 | 36.8 ± 0.52
283.15 K, x2 = 0.126 | 35.72 ± 0.51
283.15 K, x2 = 0.1413 | 34 ± 0.49
283.15 K, x2 = 0.1561 | 33.22 ± 0.48
283.15 K, x2 = 0.1765 | 32.67 ± 0.47
283.15 K, x2 = 0.1902 | 32.45 ± 0.47
283.15 K, x2 = 0.2426 | 32.01 ± 0.46
283.15 K, x2 = 0.29 | 31.75 ± 0.45
283.15 K, x2 = 0.3379 | 31.68 ± 0.45
283.15 K, x2 = 0.3895 | 31.49 ± 0.45
283.15 K, x2 = 0.4202 | 31.44 ± 0.45
283.15 K, x2 = 0.5197 | 31.05 ± 0.44
283.15 K, x2 = 0.7564 | 30.55 ± 0.43
283.15 K, x2 = 0.9008 | 30.01 ± 0.43
298.15 K, x2 = 0.0109 | 47.82 ± 0.64
298.15 K, x2 = 0.0199 | 47.46 ± 0.64
298.15 K, x2 = 0.0361 | 46.85 ± 0.63
298.15 K, x2 = 0.072 | 45.45 ± 0.62
298.15 K, x2 = 0.0845 | 44.97 ± 0.61
298.15 K, x2 = 0.1012 | 44.23 ± 0.6
298.15 K, x2 = 0.1402 | 42.7 ± 0.6
298.15 K, x2 = 0.1599 | 40.49 ± 0.56
298.15 K, x2 = 0.1992 | 40.13 ± 0.55
298.15 K, x2 = 0.2569 | 37.76 ± 0.52
298.15 K, x2 = 0.2999 | 36.35 ± 0.51
298.15 K, x2 = 0.35 | 34.9 ± 0.5
298.15 K, x2 = 0.4345 | 33 ± 1
298.15 K, x2 = 0.4888 | 32.25 ± 0.45
298.15 K, x2 = 0.5699 | 31.53 ± 0.45
298.15 K, x2 = 0.6321 | 31.01 ± 0.44
298.15 K, x2 = 0.7099 | 30.49 ± 0.43
298.15 K, x2 = 0.7765 | 30.17 ± 0.43
298.15 K, x2 = 0.8499 | 29.71 ± 0.42
308.15 K, x2 = 0.0202 | 46.45 ± 0.63
308.15 K, x2 = 0.0349 | 45.63 ± 0.62
308.15 K, x2 = 0.0674 | 43.75 ± 0.6
308.15 K, x2 = 0.0851 | 42.8 ± 0.59
308.15 K, x2 = 0.1021 | 41.75 ± 0.57
308.15 K, x2 = 0.1568 | 39.26 ± 0.54
308.15 K, x2 = 0.1852 | 37.85 ± 0.53
308.15 K, x2 = 0.1987 | 37.18 ± 0.52
308.15 K, x2 = 0.2426 | 35.5 ± 0.5
308.15 K, x2 = 0.2976 | 34.05 ± 0.48
308.15 K, x2 = 0.4144 | 31.64 ± 0.45
308.15 K, x2 = 0.4734 | 30.85 ± 0.44
308.15 K, x2 = 0.5101 | 30.41 ± 0.43
308.15 K, x2 = 0.6453 | 28.95 ± 0.42
308.15 K, x2 = 0.7654 | 28.53 ± 0.41
308.15 K, x2 = 0.9352 | 27.83 ± 0.4

OCCO [1,2-ethanediol] + O
[2]
Conditions | surface tension liquid-gas [mN/m]
283.15 K, x1 = 0.0078 | 73.5 ± 0.93
283.15 K, x1 = 0.0132 | 72.59 ± 0.92
283.15 K, x1 = 0.0216 | 71.19 ± 0.91
283.15 K, x1 = 0.0334 | 69.9 ± 0.89
283.15 K, x1 = 0.0498 | 68.63 ± 0.88
283.15 K, x1 = 0.0632 | 67.15 ± 0.86
283.15 K, x1 = 0.0875 | 64.99 ± 0.83
283.15 K, x1 = 0.1152 | 63.9 ± 0.82
283.15 K, x1 = 0.1436 | 62.16 ± 0.8
283.15 K, x1 = 0.1635 | 60.8 ± 0.79
283.15 K, x1 = 0.2002 | 59.26 ± 0.77
283.15 K, x1 = 0.2509 | 57.72 ± 0.75
283.15 K, x1 = 0.2895 | 56.46 ± 0.74
283.15 K, x1 = 0.4112 | 54.53 ± 0.71
283.15 K, x1 = 0.4753 | 53.16 ± 0.7
283.15 K, x1 = 0.6668 | 51.62 ± 0.68
283.15 K, x1 = 0.7562 | 50.82 ± 0.68
283.15 K, x1 = 0.8958 | 49.84 ± 0.67
298.15 K, x1 = 0.0083 | 71.18 ± 0.91
298.15 K, x1 = 0.0144 | 70.41 ± 0.9
298.15 K, x1 = 0.0246 | 69.25 ± 0.88
298.15 K, x1 = 0.0351 | 68.12 ± 0.87
298.15 K, x1 = 0.0466 | 66.95 ± 0.86
298.15 K, x1 = 0.0556 | 66.14 ± 0.85
298.15 K, x1 = 0.0899 | 63.74 ± 0.82
298.15 K, x1 = 0.1042 | 62.68 ± 0.81
298.15 K, x1 = 0.1342 | 61.16 ± 0.79
298.15 K, x1 = 0.1624 | 59.99 ± 0.78
298.15 K, x1 = 0.1989 | 58.5 ± 0.8
298.15 K, x1 = 0.2499 | 56.89 ± 0.74
298.15 K, x1 = 0.2996 | 55.65 ± 0.73
298.15 K, x1 = 0.401 | 53.63 ± 0.7
298.15 K, x1 = 0.4999 | 52.22 ± 0.69
298.15 K, x1 = 0.65 | 50.65 ± 0.67
298.15 K, x1 = 0.75 | 49.82 ± 0.66
298.15 K, x1 = 0.8987 | 48.68 ± 0.65
308.15 K, x1 = 0.008 | 69.14 ± 0.88
308.15 K, x1 = 0.0141 | 68.26 ± 0.87
308.15 K, x1 = 0.0253 | 66.81 ± 0.86
308.15 K, x1 = 0.0353 | 65.67 ± 0.84
308.15 K, x1 = 0.0511 | 64.1 ± 0.82
308.15 K, x1 = 0.0556 | 63.7 ± 0.82
308.15 K, x1 = 0.0905 | 61.09 ± 0.79
308.15 K, x1 = 0.1113 | 59.86 ± 0.78
308.15 K, x1 = 0.1445 | 58.26 ± 0.76
308.15 K, x1 = 0.1602 | 57.62 ± 0.75
308.15 K, x1 = 0.2132 | 55.84 ± 0.73
308.15 K, x1 = 0.2485 | 54.9 ± 0.72
308.15 K, x1 = 0.3201 | 53.39 ± 0.7
308.15 K, x1 = 0.4126 | 51.95 ± 0.69
308.15 K, x1 = 0.5054 | 50.84 ± 0.67
308.15 K, x1 = 0.6501 | 49.52 ± 0.66
308.15 K, x1 = 0.7406 | 48.84 ± 0.65
308.15 K, x1 = 0.8875 | 47.91 ± 0.64

CC#N [acetonitrile]
[1]
Conditions | surface tension liquid-gas [mN/m]
283.15 K | 29.73 ± 0.42
298.15 K | 28.2 ± 0.41
308.15 K | 27.47 ± 0.4

CC#N [acetonitrile] + O
[2]
Conditions | surface tension liquid-gas [mN/m]
283.15 K, x1 = 0.0051 | 70.6 ± 0.91
283.15 K, x1 = 0.0101 | 67.18 ± 0.87
283.15 K, x1 = 0.0151 | 64.36 ± 0.83
283.15 K, x1 = 0.0217 | 61.23 ± 0.8
283.15 K, x1 = 0.0298 | 57.99 ± 0.76
283.15 K, x1 = 0.0377 | 55.36 ± 0.73
283.15 K, x1 = 0.0486 | 52.34 ± 0.69
283.15 K, x1 = 0.0593 | 49.47 ± 0.66
283.15 K, x1 = 0.0871 | 44.54 ± 0.6
283.15 K, x1 = 0.1011 | 42.3 ± 0.57
283.15 K, x1 = 0.1431 | 38.03 ± 0.52
283.15 K, x1 = 0.1615 | 35.51 ± 0.49
283.15 K, x1 = 0.1847 | 34.35 ± 0.48
283.15 K, x1 = 0.2068 | 33.9 ± 0.47
283.15 K, x1 = 0.2327 | 33.51 ± 0.47
283.15 K, x1 = 0.3098 | 32.89 ± 0.46
283.15 K, x1 = 0.3971 | 32.56 ± 0.46
283.15 K, x1 = 0.4878 | 32.29 ± 0.45
283.15 K, x1 = 0.6557 | 32.06 ± 0.45
283.15 K, x1 = 0.8056 | 31.26 ± 0.44
283.15 K, x1 = 0.9592 | 29.83 ± 0.43
298.15 K, x1 = 0.0149 | 62.36 ± 0.81
298.15 K, x1 = 0.0298 | 55.92 ± 0.73
298.15 K, x1 = 0.0516 | 49.39 ± 0.66
298.15 K, x1 = 0.0653 | 45.96 ± 0.61
298.15 K, x1 = 0.086 | 42.2 ± 0.57
298.15 K, x1 = 0.095 | 40.54 ± 0.55
298.15 K, x1 = 0.1023 | 39.63 ± 0.54
298.15 K, x1 = 0.1227 | 37.97 ± 0.52
298.15 K, x1 = 0.1403 | 36.42 ± 0.5
298.15 K, x1 = 0.157 | 35.68 ± 0.49
298.15 K, x1 = 0.1855 | 33.97 ± 0.47
298.15 K, x1 = 0.195 | 34.11 ± 0.48
298.15 K, x1 = 0.2541 | 32.92 ± 0.46
298.15 K, x1 = 0.3256 | 32.34 ± 0.45
298.15 K, x1 = 0.3959 | 31.68 ± 0.45
298.15 K, x1 = 0.4851 | 31.45 ± 0.44
298.15 K, x1 = 0.5913 | 30.95 ± 0.44
298.15 K, x1 = 0.693 | 30.37 ± 0.43
298.15 K, x1 = 0.7968 | 29.46 ± 0.42
308.15 K, x1 = 0.0217 | 60.53 ± 0.78
308.15 K, x1 = 0.0298 | 59 ± 0.77
308.15 K, x1 = 0.0377 | 55.56 ± 0.73
308.15 K, x1 = 0.0727 | 48.05 ± 0.64
308.15 K, x1 = 0.0871 | 45.83 ± 0.62
308.15 K, x1 = 0.1304 | 40.09 ± 0.55
308.15 K, x1 = 0.1431 | 38.79 ± 0.53
308.15 K, x1 = 0.1615 | 36.94 ± 0.51
308.15 K, x1 = 0.1847 | 35.7 ± 0.49
308.15 K, x1 = 0.2068 | 33.9 ± 0.47
308.15 K, x1 = 0.2327 | 33.51 ± 0.47
308.15 K, x1 = 0.3098 | 31.04 ± 0.44
308.15 K, x1 = 0.3971 | 30.05 ± 0.43
308.15 K, x1 = 0.4999 | 29.11 ± 0.42
308.15 K, x1 = 0.6557 | 28.41 ± 0.41
308.15 K, x1 = 0.7775 | 28.21 ± 0.41
308.15 K, x1 = 0.9592 | 28.05 ± 0.4

O [water]
[1]
Conditions | surface tension liquid-gas [mN/m]
283.15 K | 74.47 ± 0.94
298.15 K | 72.06 ± 0.92
308.15 K | 70.41 ± 0.9
